These results are taken from PMC10012049, “Synthesis, α-mannosidase inhibition studies and molecular modeling of 1,4-imino-ᴅ-lyxitols and their C-5-altered N-arylalkyl derivatives” (Beilstein Journal of Organic Chemistry, 2023).

The target in assay [1] is T1, AMAN-2 (Golgi α-mannosidase II) (Caenorhabditis elegans, UniProt Q2PJ74). Put plainly: α-mannosidase inhibition assay with pNP-Man substrate, AMAN-2. Type of assay: biochemical. To be noted: for Selectivity index, SI [Ki (JBMan)/Ki (AMAN-2)]: ratio of Ki values; for times more potent toward AMAN-2 than DIM: relative to DIM; for SI [IC50 (JBMan)/IC50 (AMAN-2)]: ratio of IC50 values. An excerpt: (§1) The enzymes screened included two Golgi types (GMIIb and AMAN-2) and two lysosomal types (LManII and JBMan) (Table 1).
Recombinant soluble forms of Drosophila melanogaster Golgi (GMIIb) and lysosomal (LManII) α-mannosidases as well as Caenorhabditis elegans Golgi α-mannosidase AMAN-2 were produced in Pichia pastoris and enriched by ammonium sulfate precipitation or nickel chelation chromatography as previously described. The α-mannosidase from Canavalia ensiformis (JBMan) was purchased from Sigma. The mannosidase activity of these enzyme preparations were measured using p-nitrophenyl α -D-mannopyranoside ( pNP-Man; Sigma; 100 mM stock in dimethylsulfoxide) as a substrate at 2 mM final concentration in 50 mM acetate buffer of the relevant previously defined optimal pH, GMIIb and AMAN -2 at pH 6.0, LManII at pH 5.2 , and JBMan at pH 5.0) and 0.5 μL of the enzyme (0.05 µg of protein for JBMan), in a total volume of 50 μL for 1–2 h at 37 °C. GMIIb was assayed in the presence of 0.5 mM CoCl2.
(§2) The lyophilized derivatives used in the assay were dissolved in DMSO to the final concentration 50 mM and further diluted to a desired concentration in water. These derivatives were preincubated with the enzyme in the buffer for 5 min at rt and the reaction was started by addition of the substrate. The reactions were terminated with two volumes (0.1 mL) of 0.5 M sodium carbonate and the production of p-nitrophenol was measured at 405 nm using a multimode reader Mithras LB943 (Berthold Technologies). The average or representative result of three independent experiments made in duplicate is presented.

Assay [2] concerns the target T2, GMIIb (Golgi α-mannosidase) (Drosophila melanogaster, UniProt Q9VF33). Put plainly: α-mannosidase inhibition assay with pNP-Man substrate, GMIIb. Type of assay: biochemical. The note with it: for Ki: Dixon plots, pNP-Man 0.5-4 mM, pH 6.0.
Excerpt: as §1
(§3) Recombinant soluble forms of Drosophila melanogaster Golgi (GMIIb) and lysosomal (LManII) α-mannosidases as well as Caenorhabditis elegans Golgi α-mannosidase AMAN-2 were produced in Pichia pastoris and enriched by ammonium sulfate precipitation or nickel chelation chromatography as previously described. The α-mannosidase from Canavalia ensiformis (JBMan) was purchased from Sigma. […]
(§4) GMIIb was assayed in the […]
(§5) presence of 0.5 mM CoCl2.
as §2

Assay [3] addresses T3, LManII (lysosomal α-mannosidase) (Drosophila melanogaster, UniProt Q9VKV1). Put plainly: α-mannosidase inhibition assay with pNP-Man substrate, LManII. It counts as biochemical. The note with it: for Ki: Dixon plots, pNP-Man 0.5-4 mM, pH 5.2.
Excerpt: as §1, §3, §4, §5, §2

Assay [4] deals with T1, AMAN-2 (Golgi α-mannosidase II). Put plainly: α-mannosidase inhibition assay with pNP-Man substrate, AMAN-2. The note with it: Dixon plots, pNP-Man 0.5-4 mM, pH 6.0. Type of assay: biochemical.
For assay [5], the target named is T4, JBMan (Jack bean α-mannosidase) (Canavalia ensiformis, UniProt C0HJB3).
T4 construct: purchased Sigma
T4 sequence (C0HJB3 1-981): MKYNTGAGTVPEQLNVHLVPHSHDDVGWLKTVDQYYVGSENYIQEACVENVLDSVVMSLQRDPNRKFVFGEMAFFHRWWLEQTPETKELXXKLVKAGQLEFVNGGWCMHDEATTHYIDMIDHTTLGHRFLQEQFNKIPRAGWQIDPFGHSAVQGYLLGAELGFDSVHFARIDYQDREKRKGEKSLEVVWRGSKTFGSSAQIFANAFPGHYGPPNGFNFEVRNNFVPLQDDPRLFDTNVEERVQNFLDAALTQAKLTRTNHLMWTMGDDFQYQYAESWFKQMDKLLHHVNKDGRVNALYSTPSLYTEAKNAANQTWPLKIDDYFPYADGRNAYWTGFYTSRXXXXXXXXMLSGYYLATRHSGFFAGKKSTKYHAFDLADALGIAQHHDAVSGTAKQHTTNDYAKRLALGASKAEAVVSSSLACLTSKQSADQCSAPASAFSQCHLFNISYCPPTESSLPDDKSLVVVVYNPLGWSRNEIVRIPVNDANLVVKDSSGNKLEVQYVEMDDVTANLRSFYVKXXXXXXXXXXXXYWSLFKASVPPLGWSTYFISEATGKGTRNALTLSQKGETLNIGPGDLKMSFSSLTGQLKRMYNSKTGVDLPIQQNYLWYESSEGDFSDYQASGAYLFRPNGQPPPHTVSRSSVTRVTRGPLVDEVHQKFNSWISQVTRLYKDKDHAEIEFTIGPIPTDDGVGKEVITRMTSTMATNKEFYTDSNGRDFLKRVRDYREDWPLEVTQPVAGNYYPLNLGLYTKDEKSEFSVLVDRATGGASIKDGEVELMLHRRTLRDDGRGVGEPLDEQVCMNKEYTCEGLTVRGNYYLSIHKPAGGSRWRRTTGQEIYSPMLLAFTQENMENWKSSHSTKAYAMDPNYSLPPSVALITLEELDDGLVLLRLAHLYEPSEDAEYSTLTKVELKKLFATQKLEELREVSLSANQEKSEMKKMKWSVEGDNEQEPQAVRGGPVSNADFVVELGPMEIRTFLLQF
Put plainly: α-mannosidase inhibition assay with pNP-Man substrate, JBMan. It counts as biochemical. The note with it: for IC50: 2 mM pNP-Man, pH 5.0, 37 °C; for Ki: Dixon plots, pNP-Man 0.5-4 mM, pH 5.0.
Excerpt: as §1, §3, §4, §5, §2

In assay [6] the target is T1, AMAN-2 (Golgi α-mannosidase II). To be noted: cited from earlier work; for IC50: ref Kóňa et al. [22].
In assay [7] the target is T3, LManII (lysosomal α-mannosidase). To be noted: ref Kóňa et al. [22]; cited from earlier work.
The target in assay [8] is T2, GMIIb (Golgi α-mannosidase). To be noted: ref Kóňa et al. [22]; cited from earlier work.
The target of assay [9] is T4, JBMan (Jack bean α-mannosidase). The note with it: ref Kóňa et al. [22]; cited from earlier work.
[10] abbreviates: 2 mM pNP-Man, pH 6.0, 37 °C, read-out: IC50 AMAN-2.
[11] abbreviates: 2 mM pNP-Man, pH 6.0, 0.5 mM CoCl2, 37 °C, read-out: IC50 GMIIb.
The mark [12] stands for this setting: 2 mM pNP-Man, pH 5.2, 37 °C, read-out: IC50 LManII.

Like-named read-outs stand apart in the source and are kept apart here. Marks after values point to notes of the source that are not given here.

T2 sequence (Q9VF33 entry or part of it): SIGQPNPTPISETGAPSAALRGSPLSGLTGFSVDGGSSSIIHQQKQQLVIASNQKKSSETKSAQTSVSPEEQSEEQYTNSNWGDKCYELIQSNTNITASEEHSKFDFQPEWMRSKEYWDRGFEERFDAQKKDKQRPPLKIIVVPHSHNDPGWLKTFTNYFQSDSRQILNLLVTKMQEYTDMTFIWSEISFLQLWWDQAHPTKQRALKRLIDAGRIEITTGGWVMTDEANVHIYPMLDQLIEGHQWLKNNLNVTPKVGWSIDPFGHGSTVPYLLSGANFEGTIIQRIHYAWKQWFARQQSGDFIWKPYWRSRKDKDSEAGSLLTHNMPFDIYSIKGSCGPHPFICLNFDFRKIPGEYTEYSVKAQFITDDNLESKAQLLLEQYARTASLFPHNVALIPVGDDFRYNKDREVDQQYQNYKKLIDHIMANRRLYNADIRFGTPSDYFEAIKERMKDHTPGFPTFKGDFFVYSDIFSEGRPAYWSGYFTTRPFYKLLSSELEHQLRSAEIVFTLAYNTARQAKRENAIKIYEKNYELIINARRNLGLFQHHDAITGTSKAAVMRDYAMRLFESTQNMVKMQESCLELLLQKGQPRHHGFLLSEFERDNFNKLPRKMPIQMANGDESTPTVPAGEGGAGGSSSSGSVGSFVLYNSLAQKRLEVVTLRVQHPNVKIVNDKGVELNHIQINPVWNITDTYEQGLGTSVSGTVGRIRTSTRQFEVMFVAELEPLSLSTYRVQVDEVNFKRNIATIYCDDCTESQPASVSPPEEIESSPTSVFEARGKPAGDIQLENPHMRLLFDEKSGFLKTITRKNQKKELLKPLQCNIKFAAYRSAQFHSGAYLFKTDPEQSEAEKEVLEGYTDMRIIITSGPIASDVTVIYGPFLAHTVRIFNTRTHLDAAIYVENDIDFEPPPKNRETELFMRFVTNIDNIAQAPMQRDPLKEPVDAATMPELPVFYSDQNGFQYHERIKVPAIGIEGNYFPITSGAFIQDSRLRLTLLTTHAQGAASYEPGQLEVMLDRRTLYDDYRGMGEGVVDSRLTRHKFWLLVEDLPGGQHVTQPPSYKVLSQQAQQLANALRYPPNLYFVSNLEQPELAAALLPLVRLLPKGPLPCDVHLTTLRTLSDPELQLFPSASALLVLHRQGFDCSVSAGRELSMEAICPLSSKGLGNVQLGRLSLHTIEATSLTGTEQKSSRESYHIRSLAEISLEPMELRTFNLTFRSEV
T1 sequence (Q2PJ74 entry or part of it): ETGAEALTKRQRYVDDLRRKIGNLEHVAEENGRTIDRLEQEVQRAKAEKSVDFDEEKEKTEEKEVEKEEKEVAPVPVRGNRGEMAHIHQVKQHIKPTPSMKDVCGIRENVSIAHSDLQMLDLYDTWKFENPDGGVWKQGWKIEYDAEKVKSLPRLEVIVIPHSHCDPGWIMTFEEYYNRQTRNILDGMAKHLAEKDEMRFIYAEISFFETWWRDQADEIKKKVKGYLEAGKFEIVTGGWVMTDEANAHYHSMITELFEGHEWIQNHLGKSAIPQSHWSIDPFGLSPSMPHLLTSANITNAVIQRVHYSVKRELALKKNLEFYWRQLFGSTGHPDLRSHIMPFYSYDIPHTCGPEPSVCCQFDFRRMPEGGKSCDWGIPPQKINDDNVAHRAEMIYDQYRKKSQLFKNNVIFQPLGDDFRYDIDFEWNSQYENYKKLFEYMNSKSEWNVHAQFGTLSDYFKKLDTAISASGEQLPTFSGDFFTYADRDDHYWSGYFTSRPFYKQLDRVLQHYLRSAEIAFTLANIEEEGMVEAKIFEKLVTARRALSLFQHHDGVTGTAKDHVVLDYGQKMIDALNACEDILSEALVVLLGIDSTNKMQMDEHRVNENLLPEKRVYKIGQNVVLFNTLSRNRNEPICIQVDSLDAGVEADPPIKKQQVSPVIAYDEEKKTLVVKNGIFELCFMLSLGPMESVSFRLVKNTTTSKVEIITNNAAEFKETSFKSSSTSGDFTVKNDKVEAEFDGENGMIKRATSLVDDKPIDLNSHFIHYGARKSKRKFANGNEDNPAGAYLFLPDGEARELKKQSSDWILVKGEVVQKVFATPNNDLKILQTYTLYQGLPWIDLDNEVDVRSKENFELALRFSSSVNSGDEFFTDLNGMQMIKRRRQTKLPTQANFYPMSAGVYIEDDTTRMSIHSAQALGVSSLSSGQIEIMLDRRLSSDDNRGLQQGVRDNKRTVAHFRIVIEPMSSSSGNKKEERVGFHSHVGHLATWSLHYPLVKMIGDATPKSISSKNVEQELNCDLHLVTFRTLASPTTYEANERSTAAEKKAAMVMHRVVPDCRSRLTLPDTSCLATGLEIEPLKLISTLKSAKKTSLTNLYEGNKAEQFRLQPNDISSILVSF
T3 sequence (Q9VKV1 entry or part of it): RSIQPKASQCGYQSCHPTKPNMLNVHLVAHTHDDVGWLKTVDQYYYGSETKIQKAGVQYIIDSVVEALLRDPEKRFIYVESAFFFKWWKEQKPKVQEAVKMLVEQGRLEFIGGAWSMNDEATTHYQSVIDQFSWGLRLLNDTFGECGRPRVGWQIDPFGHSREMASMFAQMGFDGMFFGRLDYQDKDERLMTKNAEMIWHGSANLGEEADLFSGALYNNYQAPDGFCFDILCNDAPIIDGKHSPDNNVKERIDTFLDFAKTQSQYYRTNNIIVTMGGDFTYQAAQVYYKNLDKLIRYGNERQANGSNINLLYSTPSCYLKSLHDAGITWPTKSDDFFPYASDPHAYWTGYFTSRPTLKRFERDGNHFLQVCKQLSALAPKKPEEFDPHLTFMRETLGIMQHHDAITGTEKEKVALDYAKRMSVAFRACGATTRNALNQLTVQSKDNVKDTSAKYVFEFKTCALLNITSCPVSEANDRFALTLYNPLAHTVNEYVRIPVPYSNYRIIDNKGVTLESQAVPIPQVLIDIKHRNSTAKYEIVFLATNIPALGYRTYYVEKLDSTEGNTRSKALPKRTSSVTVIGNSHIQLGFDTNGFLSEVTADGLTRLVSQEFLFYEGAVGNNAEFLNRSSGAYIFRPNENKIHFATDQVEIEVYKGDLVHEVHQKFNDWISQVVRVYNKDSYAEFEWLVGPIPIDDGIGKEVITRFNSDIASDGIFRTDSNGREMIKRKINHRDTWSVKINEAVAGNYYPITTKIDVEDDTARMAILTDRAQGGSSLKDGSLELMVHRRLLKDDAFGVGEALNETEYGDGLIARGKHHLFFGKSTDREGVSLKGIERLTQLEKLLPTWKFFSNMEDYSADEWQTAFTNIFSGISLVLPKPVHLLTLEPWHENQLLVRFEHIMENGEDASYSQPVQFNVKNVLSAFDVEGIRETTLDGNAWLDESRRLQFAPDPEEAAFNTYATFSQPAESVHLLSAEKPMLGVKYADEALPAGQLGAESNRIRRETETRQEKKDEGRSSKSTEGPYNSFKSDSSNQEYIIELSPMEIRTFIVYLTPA

For `C[C@@H](O)[C@@H]1[C@H](O)[C@H](O)CN1Cc1ccc(I)cc1` [compound 27], the IC50 in assay [1] (setting [10]) came to 66 ± 10 µM; in [2] (setting [11]), 13 ± 5.5 µM; in assay [3] (setting [12]), 410 ± 80 µM; in assay [5], 164 ± 28 µM. Besides, the “Selectivity index, SI [Ki (JBMan)/Ki (AMAN-2)]” value (“Selectivity index, SI” below) in assay [1] is 2.1. In addition, the Ki is 4.2 µM in [2], 263 µM in [3], 34 µM in assay [4] and 73 µM in [5].

Regarding `OC[C@@H](O)[C@H]1NC[C@@H](O)[C@H]1O` [DIM, 1,4-dideoxy-1,4-imino-ᴅ-mannitol, reference compound], the IC50 in [1] (setting [10]) was 0.81 ± 0.03 µM; in assay [2] (setting [11]), 0.19 ± 0.04 µM; in [3] (setting [12]), 2.55 ± 0.1 µM; in assay [5], 0.72 ± 0.03 µM. Besides, the “Selectivity index, SI” value in assay [1] amounted to 0.6. In addition, the Ki is 0.13 µM in [2], 1.95 µM in [3], 0.68 µM in assay [4] and 0.38 µM in assay [5].

Take `C[C@@H](O)[C@@H]1[C@H](O)[C@H](O)CN1Cc1ccc2ccccc2c1` [compound 28]: the IC50 in assay [1] (setting [10]) was 22 ± 4 µM; in [2] (setting [11]), 13.5 ± 5.5 µM; in [3] (setting [12]), 118 ± 10 µM; in assay [5], 78 ± 16 µM. The “Selectivity index, SI” value in [1] is recorded as 2.4. The Ki in assay [2] was 5.2 µM; in assay [3], 98 µM; in [4], 18 µM; in assay [5], 44 µM.

As to `C[C@H](O)[C@@H]1[C@H](O)[C@H](O)CN1Cc1ccc2ccccc2c1` [compound 19], the IC50 in assay [1] (setting [10]) is 1680 ± 75 µM; in assay [2] (setting [11]), 860 ± 140 µM; in assay [3] (setting [12]), above 4000 µM; in assay [5] it was above 4000 µM.

With `C[C@@H](O)[C@H]1NC[C@@H](O)[C@H]1O` [compound 29, 6-deoxy-DIM], the IC50 in assay [1] (setting [10]) was 0.24 ± 0.05 µM; in assay [2] (setting [11]) it was 0.12 ± 0.02 µM; in [3] (setting [12]) it was 0.82 ± 0.19 µM; in assay [5] it was 0.32 ± 0.11 µM. In assay [1], the “Selectivity index, SI” value came to 0.6. For the same compound, the “times more potent toward AMAN-2 than DIM” value in [1] is reported as around 4 times; in [1] (listed as 6-deoxy-DIM), 3.5 times. The Ki in assay [2] was 0.065 µM; in assay [3] it was 0.38 µM; in [4] it was 0.19 µM; in assay [5], 0.12 µM.

Take `OC[C@H]1NC[C@@H](O)[C@H]1O` [compound 30]: the Ki in assay [6] was 2.3 µM. The concentration for half-maximal inhibition (IC50) in [6] is 2.3 ± 0.1 µM; in assay [7], 30.5 ± 3 µM; in assay [8] it was 3.9 ± 0.1 µM; in assay [9] it was 10.5 ± 1.3 µM. For the same compound, the “SI [IC50 (JBMan)/IC50 (AMAN-2)]” value in assay [1] is given as 5^b.

For `C[C@H]1NC[C@@H](O)[C@H]1O` [compound 10], the half-inhibitory concentration (IC50) in assay [1] was 415 ± 15 µM; in assay [2], 525 ± 25 µM; in assay [3], above 4000 µM; in assay [5] it was 2880 ± 275 µM.

On to `C[C@H](O)[C@@H]1[C@H](O)[C@H](O)CN1Cc1ccccc1` [compound 17], for which the IC50 in [1] (setting [10]) was 990 ± 10 µM; in assay [2] (setting [11]), 335 ± 37 µM; in assay [3] (setting [12]), above 4000 µM; in [5] it was above 4000 µM.

In the case of “N-2-naphthylmethyl 1,4-imino-ᴅ-lyxitol [compound 31]”, the IC50 in [6] is 2.4 ± 0.1 µM; in [7], 845 ± 170 µM; in assay [8], 7.6 ± 1.1 µM; in assay [9] it was 1950 ± 250 µM. In addition, the “SI [IC50 (JBMan)/IC50 (AMAN-2)]” value in [1] is 812^b.

As for `C[C@@H]1[C@H](O)[C@H](O)CN1Cc1ccc(I)cc1` [compound 8], the IC50 in assay [1] (setting [10]) is 385 ± 15 µM; in assay [2] (setting [11]) it was 205 ± 35 µM; in assay [3] (setting [12]), above 4000 µM; in assay [5], above 4000 µM.

For the compound `C[C@H](O)[C@@H]1[C@H](O)[C@H](O)CN1Cc1ccc(I)cc1` [compound 18], the IC50 in assay [1] (setting [10]) was 205 ± 5 µM; in [2] (setting [11]) it was 170 ± 10 µM; in [3] (setting [12]) it was above 4000 µM; in assay [5] it was above 4000 µM.

Regarding `C[C@@H]1[C@H](O)[C@H](O)CN1Cc1ccccc1` [compound 7], the IC50 in assay [1] (setting [10]) was 975 ± 25 µM; in assay [2] (setting [11]), 245 ± 35 µM; in [3] (setting [12]), above 4000 µM; in [5], above 4000 µM.

With `C[C@@H](O)[C@@H]1[C@H](O)[C@H](O)CN1Cc1ccccc1` [compound 26], the IC50 stood at 115 ± 18 µM in assay [1] (setting [10]), 33 ± 3.7 µM in [2] (setting [11]), 505 ± 57 µM in assay [3] (setting [12]) and 298 ± 30 µM in assay [5]. The “Selectivity index, SI” value in [1] stood at 1.4. For the same compound, the Ki in assay [2] was 16.2 µM; in [3], 270 µM; in assay [4], 58 µM; in assay [5] it was 80 µM.

`C[C@H](O)[C@H]1NC[C@@H](O)[C@H]1O` [compound 20]: the IC50 in [1] (setting [10]) turned out to be 48 ± 6 µM; in assay [2] (setting [11]), 30 ± 5 µM; in assay [3] (setting [12]), 295 ± 20 µM; in assay [5] it was 105 ± 25 µM. Besides, the “SI [IC50 (JBMan)/IC50 (AMAN-2)]” value in assay [1] is 2.2^b.

As to `C[C@@H]1[C@H](O)[C@H](O)CN1Cc1ccc2ccccc2c1` [compound 9], the IC50 is 605 ± 35 µM in [1] (setting [10]), 310 ± 22 µM in assay [2] (setting [11]), above 4000 µM in assay [3] (setting [12]) and above 4000 µM in assay [5].
